# Measurements from paper PMC12332667, “Role of Structural Modifications in Peptidomimetic Compounds as Potential Antimicrobial Agents against Staphylococcus aureus and Streptococcus pyogenes: Balancing Bioavailability, Safety, and Antimicrobial Activity” (ACS Omega, 2025).
# Columns and labels:
# P. vulgaris ATCC 6896 = assay: MIC/MBC broth microdilution, P. vulgaris; assay type: cell-based, Proteus vulgaris
# Protocol: (§1) S. aureus (ATCC 29213),S. pyogenes (ATCC 19615),Streptococcus agalactiae (ATCC 27956),Escherichia coli (ATCC 25922),Proteus vulgaris (ATCC 6896),K. pneumoniae (ATCC 700603) andP. aeruginosa (ATCC 10145) reference strains, as well asStaphylococcus cohnii, Enterococcus faecalis, Staphylococcus schleiferi, Staphylococcus intermedius and Streptococcus mutans clinical isolates, were used to test the antibacterial activity of the peptidomimetics. Bacteria were aerobically cultured for 18 h at 37 °C in plates with sterilized brain heart infusion (BHI) broth (Sigma-Aldrich, USA) media mixed with bacteriological agar (Sigma-Aldrich, USA) using the streak plate method. After 18 h, BHI broth was inoculated to 0.5 on the McFarland scale and diluted to approximately 10^5 CFU/mL. To achieve a final stock concentration of 1024 μg/mL, the peptidomimetics were dissolved in sterile water, and 5–10% of absolute ethanol or dimethyl sulfoxide (DMSO) was added. The antibacterial activities were determined by using the standard broth microdilution method of the National Committee for Clinical Laboratory Standards. The process involved adding serially diluted peptidomimetics to consecutive wells of a 96-well microtiter plate (Brand, Germany) holding media with microorganisms. The inoculated plates treated with peptides were then placed in an incubator at 37 °C for 18 h. The MIC value was determined as the lowest concentration of peptidomimetic at which there was no obvious growth (equal or more than 90% of the untreated sample). […] The lowest concentration yielding growth in no more than 3 colonies, corresponding to at least a 99.9% kill rate, was taken as MBC. Each biological replicate included control wells with the addition of water, DMSO, and ethanol as respective solvent controls. All experiments were conducted with consistent adherence to growth and sterility controls and were performed at least in technical triplicate with three biological repeats.
# [1] = system: human dermal fibroblast cell line (46BR.1N); assay: XTT cell proliferation assay, fibroblasts; assay type: cell-based; conditions: XTT
# Protocol: (§2) In our study, we used two distinct cell types: immortalized human HaCaT keratinocytes (DKFZ, Heidelberg, Germany) and a human dermal fibroblast cell line (46BR.1N). […] Cultures were maintained in a humidified atmosphere with 5% CO2 at 37 °C in 25 cm^2 culture flasks with the medium replenished every 2 days. The condition of the cells was monitored using optical microscopy. […] After 24 h of incubation, the medium was replaced with serum-free HG-DMEM containing appropriate concentrations of peptidomimetics. All solutions used in the experiments were prepared with double-distilled water or with the addition of ethanol under sterile conditions to ensure compatibility with the conditions of the bacteriological assay. For 72 h of incubation, half of the medium was replaced with fresh medium after 48 h, and cells were stimulated with peptides for a second time. The XTT cell proliferation assay was then performed according to the manufacturer’s instructions (Roche, Switzerland). Cells were treated with the peptides for either 48 or 72 h, followed by the addition of XTT reagent, and the plates were then incubated at 37 °C in a 5% CO2 environment for 4 h. Plate readings were taken using a standard plate reader at a wavelength of 490 nm (OD = 490 nm). […] Statistical significance was determined with a Mann–Whitney U test with statistical significance p ≤ 0.05. Analysis was performed with Statistica software, and graphs were prepared in GraphPad Prism.
# S. cohnii c.i. = assay: MIC/MBC broth microdilution, S. cohnii; assay type: cell-based, Staphylococcus cohnii
# Protocol: as §1
# [2] = system: immortalized human keratinocytes (HaCaT); assay: LDH cytotoxicity test, keratinocytes; assay type: cell-based; conditions: 48 h, 50, 100 and 150 μg/mL, vs 1% Triton X-100
# Protocol: (§3) In our study, we used two distinct cell types: immortalized human HaCaT keratinocytes (DKFZ, Heidelberg, Germany) and a human dermal fibroblast cell line (46BR.1N). […] Cultures were maintained in a humidified atmosphere with 5% CO2 at 37 °C in 25 cm^2 culture flasks with the medium replenished every 2 days. The condition of the cells was monitored using optical microscopy.
# (§4) Cell death in immortalized human keratinocytes (HaCaT) and fibroblasts (46BR.1N) was measured by quantifying the lactate dehydrogenase (LDH) activity using a commercial kit (Roche, Switzerland). Cells were seeded in 96-well plates at a density of 5000 cells per well in DMEM high glucose medium supplemented with 10% FBS. After 24 h of incubation, the medium was replaced with serum-free medium containing various concentrations of peptidomimetics (50, 100, and 150 μg/mL). After 48 h, supernatants were collected for LDH analysis. Plate readings were taken spectrophotometrically using a 450 nm wavelength. Cell death measurements were normalized to an untreated control (0%), with 1% Triton X-100 detergent used as a positive control to induce maximum LDH release, indicating maximal cytotoxicity. Statistical significance was determined with a Mann–Whitney U test with a statistical significance p ≤ 0.05. Analysis was performed with Statistica software (Krakow, Poland) and graphs were prepared in GraphPad Prism (Boston, USA).
# S. schleiferi c.i. = assay: MIC/MBC broth microdilution, S. schleiferi; assay type: cell-based, Staphylococcus schleiferi
# Protocol: as §1
# E. faecalis c.i. = assay: MIC/MBC broth microdilution, E. faecalis; assay type: cell-based, Enterococcus faecalis
# Protocol: as §1
# fibroblasts (46BR.1N) = assay: LDH cytotoxicity test, fibroblasts; assay type: cell-based; conditions: 48 h, 50, 100 and 150 μg/mL, vs 1% Triton X-100
# Protocol: as §3, §4
# [3] = system: immortalized human HaCaT keratinocytes; assay: XTT cell proliferation assay, keratinocytes; assay type: cell-based; conditions: XTT
# Protocol: as §2
# S. mutans c.i. = assay: MIC/MBC broth microdilution, S. mutans; assay type: cell-based, Streptococcus mutans
# Protocol: as §1
# S. intemrdius c.i. = assay: MIC/MBC broth microdilution, S. intermedius; assay type: cell-based, Staphylococcus intermedius
# Protocol: as §1
# S. agalactiae ATCC 27956 = assay: MIC/MBC broth microdilution, S. agalactiae; assay type: cell-based, Streptococcus agalactiae; conditions: S. agalactiae
# Protocol: as §1
# P. aeruginosa ATCC 10145 = assay: MIC/MBC broth microdilution, P. aeruginosa; assay type: cell-based
# Protocol: as §1
# [4] = system: K. pneumoniae ATCC 700603; assay: MIC/MBC broth microdilution, K. pneumoniae; assay type: cell-based
# Protocol: as §1
# S. aureus ATCC 43300 = assay: MIC/MBC broth microdilution, S. aureus; assay type: cell-based, Staphylococcus aureus; conditions: S. aureus
# S. pyogenes ATCC 19615 = assay: MIC/MBC broth microdilution, S. pyogenes; assay type: cell-based, Streptococcus pyogenes; conditions: S. pyogenes
# Protocol: as §1
# E. coli ATCC 25922 = assay: MIC/MBC broth microdilution, E. coli; assay type: cell-based, Escherichia coli
# Protocol: as §1
smiles,measurement,setting,value
CC(C)C[C@H](NC(=O)[C@H](CCCCNC(=N)N)NC(=O)OCc1ccccc1)C(=O)N[C@H](CNC(=O)/C=C/c1ccccc1)C(C)C [Compound A-134],MIC,P. vulgaris ATCC 6896; water additive DMSO,> 512 µg/mL
same,MIC,P. vulgaris ATCC 6896; water additive EtOH,> 512 µg/mL
same,proliferation relative to control at 50 μg/mL,[1]; 50 μg/mL,approximately 75%
same,"effect on proliferation, in words","[1]; 48 and 72 h, 0.01–150 μg/mL",pro-proliferating effect at lower concentrations followed by an antiproliferative effect at higher concentrations
same,MBC,S. cohnii c.i.; water additive DMSO,32 µg/mL
same,MIC,S. cohnii c.i.; water additive DMSO,32 µg/mL
same,MBC,S. cohnii c.i.; water additive EtOH,32 µg/mL
same,MIC,S. cohnii c.i.; water additive EtOH,32 µg/mL
same,cytotoxicity (LDH),[2],≤ 50%
same,MIC,S. schleiferi c.i.; water additive DMSO,> 512 µg/mL
same,MIC,S. schleiferi c.i.; water additive EtOH,> 512 µg/mL
same,MBC,E. faecalis c.i.; water additive DMSO,512 µg/mL
same,MIC,E. faecalis c.i.; water additive DMSO,256 µg/mL
same,MBC,E. faecalis c.i.; water additive EtOH,512 µg/mL
same,MIC,E. faecalis c.i.; water additive EtOH,512 µg/mL
same,cytotoxicity (LDH),fibroblasts (46BR.1N),≤ 50%
same,proliferation relative to control at 50 μg/mL,[3]; 50 μg/mL,approximately 75%
same,"effect on proliferation, in words","[3]; 48 and 72 h, 0.01–150 μg/mL",pro-proliferating effect at lower concentrations followed by an antiproliferative effect at higher concentrations
same,MBC,S. mutans c.i.; water additive DMSO,> 512 µg/mL
same,MIC,S. mutans c.i.; water additive DMSO,512 µg/mL
same,MIC,S. mutans c.i.; water additive EtOH,> 512 µg/mL
same,MBC,S. intemrdius c.i.; water additive DMSO,32 µg/mL
same,MIC,S. intemrdius c.i.; water additive DMSO,32 µg/mL
same,MBC,S. intemrdius c.i.; water additive EtOH,16 µg/mL
same,MIC,S. intemrdius c.i.; water additive EtOH,16 µg/mL
same,MIC,S. agalactiae ATCC 27956; water additive DMSO,32 µg/mL
same,MIC,S. agalactiae ATCC 27956; water additive EtOH,32 µg/mL
same,MIC,P. aeruginosa ATCC 10145; water additive DMSO,> 512 µg/mL
same,MIC,P. aeruginosa ATCC 10145; water additive EtOH,> 512 µg/mL
same,MIC,[4]; water additive DMSO,> 512 µg/mL
same,MIC,[4]; water additive EtOH,> 512 µg/mL
same,MIC,S. aureus ATCC 43300; H2O,32 µg/mL
same,MIC,S. aureus ATCC 43300; water additive EtOH,32 µg/mL
same,MIC,S. pyogenes ATCC 19615; H2O,32 µg/mL
same,MBC,S. pyogenes ATCC 19615; water additive DMSO,16 µg/mL
same,MIC,S. pyogenes ATCC 19615; water additive DMSO,32 µg/mL
same,MBC,S. pyogenes ATCC 19615; water additive EtOH,32 µg/mL
same,MIC,S. pyogenes ATCC 19615; water additive EtOH,16 µg/mL
same,MIC,E. coli ATCC 25922; water additive DMSO,> 512 µg/mL
same,MIC,E. coli ATCC 25922; water additive EtOH,> 512 µg/mL
